Results taken from ChEMBL document CHEMBL6121066, “Structure-Activity Relationship Studies of DNA Methyltransferase 1 Monovalent Degraders” (J Med Chem, 2025).

Experiments:
HCT-116 = test: Induction of molecular glue effect mediated DNMT1 degradation in human HCT-116 cells assessed as reduction in DNMT1 protein level by measuring maximal efficacy at 1 uM incubated for 24 hrs by Western blot analysis relative to control; type: cell-based
[1] = Induction of molecular glue effect mediated DNMT1 degradation in human HCT-116 cells assessed as reduction in DNMT1 protein level incubated for 24 hrs by Western blot analysis; type: cell-based; details: HCT-116, 24 h

| SMILES | DC50 [1] [nM] | Emax (HCT-116) [%] |
| --- | --- | --- |
| CCc1c(C#N)c(SC(C(N)=O)c2ccccc2)nc(N2CCNCC2)c1C#N (centres undefined) | 184 | 78 |
| CCc1c(C#N)c(SC(C(N)=O)c2ccccc2)nc(N2CCN(C(=O)c3ccc(C(C)C)s3)CC2)c1C#N (centres undefined) | 405 | 71 |
| CCc1c(C#N)c(SC(C(N)=O)c2ccccc2)nc(N2CCN(C(=O)c3cc4ccccc4s3)CC2)c1C#N (centres undefined) | 714 | 74 |
| CCc1c(C#N)c(SC(C(N)=O)c2ccccc2)nc(N2CCN(C)CC2)c1C#N (centres undefined) | > 1000 | 46 |
| CCCNC(=O)C(Sc1nc(N2CCC(N)CC2)c(C#N)c(CC)c1C#N)c1ccccc1 (centres undefined) | > 1000 | 13 |
| CCc1c(C#N)c(SC(C(N)=O)c2ccccc2)nc(N2CCN(C(=O)C3CNC3)CC2)c1C#N (centres undefined) | 820 | 56 |
| CCc1c(C#N)c(SC(C(N)=O)c2ccccc2)nc(N2CCNC(=O)CC2)c1C#N (centres undefined) | 819 | 58 |
| CCc1c(C#N)c(SC(C(N)=O)c2ccccc2)nc(N2CCN(C)C(=O)C2)c1C#N (centres undefined) | 190 | 87 |

The next compounds have a lower DC50 [1] than those just listed; values first:

| DC50 [1] [nM] | SMILES | Emax (HCT-116) [%] |
| --- | --- | --- |
| 35 | CCc1c(C#N)c(SC(C(N)=O)c2ccccc2)nc(N2CCC(N(C)C)CC2)c1C#N (centres undefined) | 92 |
| 119 | CCc1c(C#N)c(SC(C(N)=O)c2ccccc2)nc(N2CCCNCC2)c1C#N (centres undefined) | 87 |
| 65 | CCc1c(C#N)c(SC(C(N)=O)c2ccccc2)nc(N2CCN(C(=O)CC(C)C)CC2)c1C#N (centres undefined) | 93 |
| 144 | CCc1c(C#N)c(SC(C(N)=O)c2ccccc2)nc(N2CCN(C(=O)c3cc[nH]n3)CC2)c1C#N (centres undefined) | 89 |
| 89 | CCc1c(C#N)c(SC(C(N)=O)c2ccccc2)nc(N2CCN(C(=O)c3nccs3)CC2)c1C#N (centres undefined) | 90 |
| 92 | CCc1c(C#N)c(SC(C(N)=O)c2ccccc2)nc(N2CCC(N)C2)c1C#N (centres undefined) | 87 |
| 175 | CCc1c(C#N)c(SC(C(N)=O)c2ccccc2)nc(N2CCN(C(=O)C3CCCCCC3)CC2)c1C#N (centres undefined) | 87 |
| 99 | CCc1c(C#N)c(SC(C(N)=O)c2ccccc2)nc(N(C)CC(N)=O)c1C#N (centres undefined) | 88 |
| 51 | CCC(=O)N1CCN(c2nc(SC(C(N)=O)c3ccccc3)c(C#N)c(CC)c2C#N)CC1 (centres undefined) | 89 |
